# Source: publication PMC9516332 (Frontiers in Oncology, 2022)
# Where two headings read alike, the source gives them in different places.
# Experiments:
# Assay in all cases: Kinase panel profiling at 1 µmol/L (MSA or IMAP), percentage inhibition
# Format in all cases: biochemical
# [1] = biological target: T1, panel of 255 wild-type kinases (Homo sapiens, UniProt Q15139); details: read-out: %-inhibition at 1 µmol/L, PKD1
# T1 sequence (Q15139 1-912): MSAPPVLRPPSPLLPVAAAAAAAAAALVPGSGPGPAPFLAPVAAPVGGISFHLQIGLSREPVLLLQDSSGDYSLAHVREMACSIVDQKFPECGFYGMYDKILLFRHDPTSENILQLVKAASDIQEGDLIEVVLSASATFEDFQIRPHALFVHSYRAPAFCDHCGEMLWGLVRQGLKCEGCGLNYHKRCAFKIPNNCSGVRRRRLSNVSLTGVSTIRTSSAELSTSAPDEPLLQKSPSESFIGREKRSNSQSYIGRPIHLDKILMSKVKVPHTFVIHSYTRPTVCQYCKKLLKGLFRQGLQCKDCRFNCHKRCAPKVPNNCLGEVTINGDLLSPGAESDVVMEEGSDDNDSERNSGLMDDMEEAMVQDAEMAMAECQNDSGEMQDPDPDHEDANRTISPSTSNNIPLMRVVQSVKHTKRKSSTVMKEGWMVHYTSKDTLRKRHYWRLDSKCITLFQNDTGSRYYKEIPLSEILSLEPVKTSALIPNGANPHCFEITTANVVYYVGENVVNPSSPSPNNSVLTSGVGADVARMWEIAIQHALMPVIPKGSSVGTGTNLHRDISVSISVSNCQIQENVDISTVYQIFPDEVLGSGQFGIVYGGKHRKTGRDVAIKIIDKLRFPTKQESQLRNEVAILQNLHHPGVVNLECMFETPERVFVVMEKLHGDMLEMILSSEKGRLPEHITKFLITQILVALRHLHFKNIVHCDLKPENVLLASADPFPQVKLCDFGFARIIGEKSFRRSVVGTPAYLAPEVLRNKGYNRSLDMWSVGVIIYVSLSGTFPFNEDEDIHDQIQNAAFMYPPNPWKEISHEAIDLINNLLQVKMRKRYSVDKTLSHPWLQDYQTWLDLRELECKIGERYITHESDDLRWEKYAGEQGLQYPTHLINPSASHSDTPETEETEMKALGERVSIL
# [2] = biological target: panel of 255 wild-type kinases (Homo sapiens, UniProt O14578); details: read-out: %-inhibition at 1 µmol/L, CRIK
# [3] = biological target: panel of 255 wild-type kinases (Homo sapiens, UniProt P49760); details: read-out: %-inhibition at 1 µmol/L, CLK2
# [4] = biological target: panel of 255 wild-type kinases (Homo sapiens, UniProt Q14289); details: read-out: %-inhibition at 1 µmol/L, PYK2
# [5] = biological target: panel of 255 wild-type kinases (Homo sapiens, UniProt Q9P286); details: read-out: %-inhibition, PAK5
# [6] = biological target: panel of 255 wild-type kinases (Homo sapiens, UniProt P24723); details: read-out: %-inhibition at 1 µmol/L, PKCη
# [7] = biological target: T2, panel of 255 wild-type kinases (Homo sapiens, UniProt Q9UL54); details: read-out: %-inhibition at 1 µmol/L, TAOK2
# T2 sequence (Q9UL54 1-1235): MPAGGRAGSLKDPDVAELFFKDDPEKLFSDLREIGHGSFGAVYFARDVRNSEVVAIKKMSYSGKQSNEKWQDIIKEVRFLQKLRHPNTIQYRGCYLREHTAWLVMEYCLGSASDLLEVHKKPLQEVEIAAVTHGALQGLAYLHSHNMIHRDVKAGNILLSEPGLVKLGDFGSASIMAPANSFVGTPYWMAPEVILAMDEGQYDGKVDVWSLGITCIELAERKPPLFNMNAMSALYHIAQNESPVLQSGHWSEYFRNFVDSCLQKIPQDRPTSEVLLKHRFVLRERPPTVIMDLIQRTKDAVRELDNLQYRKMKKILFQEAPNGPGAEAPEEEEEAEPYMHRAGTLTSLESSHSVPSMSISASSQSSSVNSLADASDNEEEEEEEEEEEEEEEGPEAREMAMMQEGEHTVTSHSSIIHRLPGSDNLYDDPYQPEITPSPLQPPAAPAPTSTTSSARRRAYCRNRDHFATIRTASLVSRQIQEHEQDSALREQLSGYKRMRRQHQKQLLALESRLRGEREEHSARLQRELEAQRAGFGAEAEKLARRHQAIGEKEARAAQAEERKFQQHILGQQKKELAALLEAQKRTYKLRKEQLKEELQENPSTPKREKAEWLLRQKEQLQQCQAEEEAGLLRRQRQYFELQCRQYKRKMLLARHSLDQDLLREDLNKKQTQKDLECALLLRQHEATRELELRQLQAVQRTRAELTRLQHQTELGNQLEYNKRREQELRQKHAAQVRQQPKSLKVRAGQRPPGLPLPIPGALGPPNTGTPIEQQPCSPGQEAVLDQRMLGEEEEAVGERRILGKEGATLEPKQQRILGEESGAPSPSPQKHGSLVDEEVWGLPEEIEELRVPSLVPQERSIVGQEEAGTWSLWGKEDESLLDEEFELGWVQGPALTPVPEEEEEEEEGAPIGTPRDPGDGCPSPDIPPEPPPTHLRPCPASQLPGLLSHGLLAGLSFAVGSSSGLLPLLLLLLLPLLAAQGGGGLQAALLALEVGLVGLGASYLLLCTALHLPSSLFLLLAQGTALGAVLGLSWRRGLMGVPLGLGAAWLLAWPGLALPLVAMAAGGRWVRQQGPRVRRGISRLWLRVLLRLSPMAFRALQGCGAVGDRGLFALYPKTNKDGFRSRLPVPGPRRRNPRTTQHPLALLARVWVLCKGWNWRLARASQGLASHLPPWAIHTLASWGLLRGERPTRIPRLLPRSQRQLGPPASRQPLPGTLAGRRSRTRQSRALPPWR
# [8] = biological target: panel of 255 wild-type kinases (Homo sapiens, UniProt Q9UQM7); details: read-out: %-inhibition CaMK2α
# [9] = biological target: panel of 255 wild-type kinases (Homo sapiens, UniProt P51451); details: read-out: %-inhibition BLK
# [10] = biological target: panel of 255 wild-type kinases (Homo sapiens, UniProt Q9UBS0); details: read-out: %-inhibition, p70S6Kβ
# [11] = kinase PKD1, 1 µmol/L single concentration
# [12] = kinase CRIK, 1 µmol/L single concentration
# [13] = kinase CLK2, 1 µmol/L single concentration
# [14] = kinase PYK2, 1 µmol/L single concentration
# [15] = PAK5, 1 µmol/L single concentration
# [16] = kinase PKCη, 1 µmol/L single concentration
# [17] = kinase TAOK2, 1 µmol/L single concentration
# [18] = CaMK2α kinase assay, 1 µmol/L single concentration
# [19] = BLK kinase assay, 1 µmol/L single concentration
# [20] = p70S6Kβ, 1 µmol/L single concentration
SMILES,"inhibition at 1 µM [1, 11]","inhibition at 1 µM [2, 12]","inhibition at 1 µM [3, 13]","inhibition at 1 µM [4, 14]","inhibition at 1 µM [5, 15]","inhibition at 1 µM [6, 16]","inhibition at 1 µM [7, 17]","inhibition at 1 µM [8, 18]","inhibition at 1 µM [9, 19]","inhibition at 1 µM [10, 20]",inhibition at 1 µM [1],inhibition at 1 µM [2],inhibition at 1 µM [3],inhibition at 1 µM [4],inhibition at 1 µM [5],inhibition at 1 µM [6],inhibition at 1 µM [7],inhibition at 1 µM [8],inhibition at 1 µM [9],inhibition at 1 µM [10]
Cn1cnc2c(F)c(Nc3ccc(Br)cc3Cl)c(C(=O)NOCCO)cc21 [selumetinib],-0.6%,-2.33%,7%,-0.622%,0.473%,-3.21%,3.77%,-1.34%,-6%,8%,,,,,,,,,,
CCN1C(=O)N(c2c(F)c(OC)cc(OC)c2F)Cc2cnc3[nH]c(CN4CCOCC4)cc3c21 [pemigatinib],10%,-4.34%,6.37%,8%,2.26%,5%,48%,5%,27%,-0.851%,,,,,,,,,,
CNC(=O)c1ccc(-c2cnc3ncc(Cc4ccc5ncccc5c4)n3n2)cc1F [capmatinib],,,,,,,,,,,-5%,-4.75%,7%,-2.25%,0.765%,-8.53%,3%,-0.603%,-4%,12%
FC(F)(F)c1ccc(CNc2ccc(Cc3c[nH]c4ncc(Cl)cc34)cn2)cn1 [pexidartinib],-2.56%,-1.09%,3.48%,3%,7%,0.77%,4%,-4%,18%,7%,,,,,,,,,,
Cn1cnc2c(F)c(Nc3ccc(Br)cc3F)c(C(=O)NOCCO)cc21 [binimetinib],-1.69%,-3.44%,-2.25%,2.41%,5%,6%,0.465%,-4.55%,10%,1.09%,,,,,,,,,,
C[C@H]1Oc2cc(cnc2N)-c2c(nn(C)c2C#N)CN(C)C(=O)c2ccc(F)cc21 [lorlatinib],-0.468%,-1.22%,2.49%,,11%,0.817%,-1.11%,3.76%,-6%,11%,,,,,,,,,,

# The next lines start with results.
"inhibition at 1 µM [1, 11]","inhibition at 1 µM [2, 12]","inhibition at 1 µM [3, 13]","inhibition at 1 µM [4, 14]","inhibition at 1 µM [5, 15]","inhibition at 1 µM [6, 16]","inhibition at 1 µM [7, 17]","inhibition at 1 µM [8, 18]","inhibition at 1 µM [9, 19]","inhibition at 1 µM [10, 20]",SMILES,inhibition at 1 µM [1],inhibition at 1 µM [2],inhibition at 1 µM [3],inhibition at 1 µM [4],inhibition at 1 µM [5],inhibition at 1 µM [6],inhibition at 1 µM [7],inhibition at 1 µM [8],inhibition at 1 µM [9],inhibition at 1 µM [10]
3.64%,-4.75%,-2.3%,12%,9%,4.42%,5.33%,1.43%,76%,6.63%,COc1ccc(CN2C3CC2CN(c2ccc(-c4cc(OCC(C)(C)O)cn5ncc(C#N)c45)cn2)C3)cn1 [selpercatinib],,,,,,,,,,
0.148%,-4.22%,9%,5.34%,-0.213%,1.58%,3.76%,2.74%,-4%,4.22%,O=C(Nc1cnn2ccc(N3CCC[C@@H]3c3cc(F)ccc3F)nc12)N1CC[C@H](O)C1 [larotrectinib],,,,,,,,,,
-3.47%,-3.16%,3.58%,-3.37%,-1%,0.743%,-0.0517%,0.0129%,-12%,2.47%,C[C@H](Nc1ncnc2nc[nH]c12)c1cc2cccc(Cl)c2c(=O)n1-c1ccccc1 [duvelisib],,,,,,,,,,
0.3%,-0.417%,9.51%,64%,69%,-3.21%,14%,-1.59%,84%,5.54%,CO[C@]1(C(=O)N[C@@H](C)c2ccc(-n3cc(F)cn3)nc2)CC[C@H](c2nc(C)cc(Nc3cc(C)[nH]n3)n2)CC1 [pralsetinib],,,,,,,,,,
28%,-2.49%,5%,1.48%,3.53%,-5.44%,5%,-3%,2.27%,3.57%,Cc1cc(Nc2ncnc3ccc(NC4=NC(C)(C)CO4)cc23)ccc1Oc1ccn2ncnc2c1 [tucatinib],,,,,,,,,,
-2%,-5.56%,85%,-4%,-2.58%,1.42%,-1.44%,-1.21%,-13%,4.37%,Cc1nc(NC(=O)N2CCC[C@H]2C(N)=O)sc1-c1ccnc(C(C)(C)C(F)(F)F)c1 [alpelisib],,,,,,,,,,
